From US20220347167A1, “A NEW TREATMENT FOR MEIBOMIAN GLAND DYSFUNCTION” (The Schepens Eye Research Institute, Inc., priority 2019, published 2022)
“Also recorded” adds a separate entry of the source.

Tests used:
[1] = test system: apolipoprotein E-deficient (ApoE −/−) mice; assay: Serum cholesterol in ApoE −/− mice (cholesterol fluorometric assay kit); type: in vivo, mouse; details: Roxa 10 mg/kg subcutaneous, three times per week for 12 weeks, vs vehicle, p<0.05
Procedure: The whole blood samples of mice were collected by cardiac puncture after sacrificing. The blood samples were allowed to clot by leaving it undisturbed at room temperature for 15 minutes. The clot was removed by centrifuging at 1,000-2,000×g for 10 minutes in a refrigerated centrifuge. The resulting supernatant was designated serum. Then the cholesterol level in the serum was evaluated by using a commercially available cholesterol fluorometric assay kit (#10007640, Cayman Chemical, Mich.). The weight of each mice was measured before and after the experiment. The percentage of weight gain was compared between the Roxa-treated mice and the vehicle-treated mice.
At the beginning of the study, the 16 ApoE−/− mice and 4 wild-type (WT) C57BL/6J mice, 12 weeks of age, were measured for their weight, tear volume, corneal fluorescein staining and tear breakup time (TBUT). The ApoE −/− mice were randomly divide into 2 groups (n=8 mice/group) and treated with vehicle control (2% DMSO in sterile saline, subcutaneous injection) or Roxa (10 mg/kg, subcutaneous injection). The injections were administrated three times per week (on Monday, Wednesday, and Friday mornings) for 12 weeks. […] At the end of the study, the weight, tear volume, corneal fluorescein staining and tear breakup time (TBUT) were measured again. […]

IHMGECs = assay: Oil red O (ORO) staining of neutral lipid droplets in IHMGECs; type: cell-based, human
Procedure: Authenticated IHMGECs were grown and passaged in keratinocyte serum-free medium (KSFM) with 5 ng/mL epidermal growth factor (EGF) and 50 μg/mL bovine pituitary extract (BPE) (Thermo Fisher Scientific, Waltham, Mass.) under 21% O2 (normoxia) [Liu et al. (2010) Investigative ophthalmology & visual science 51:3993-4005; McDermott et al. (2018) Current eye research 43:1097-1101; Liu et al. (2013) Investigative ophthalmology & visual science 54:2541-2550]. Upon reaching 60% to 70% confluence, culture media were replaced by a 1:1 mixture of Dulbecco's modified Eagle's medium and Ham's F12 (DMEM/F12, Corning Life Sciences, Tewksbury, Mass.), supplemented with 10% fetal bovine serum (FBS, Atlanta Biologicals, Flowery Branch, Ga.) [Sullivan et al. (2014) Investigative ophthalmology & visual science 55:3866-3877; Liu et al. (2014) JAMA ophthalmology 132:226-228]. Cells were cultured for 4-10 days under 21% O2 (normoxic) or 1% O2 (hypoxic) conditions. […]
After four days of incubation, cells seeded on chamber slides (Corning, Rochester, N.Y.) were stained with 0.3% Oil red 0 (ORO, Fisher Biotec, Wembley, Wash., Australia) according to the published protocol in Liu et al. (2010) Investigative ophthalmology & visual science 51:3993-4005) and Liu et al. (2014) Toxicology 320:1-5. […] The size of the stained area was quantified using ImageJ [Deutsch et al. (2014) Anal Biochem 445:87-89]. […]

With `Cc1nc(C(=O)NCC(=O)O)c(O)c2ccc(Oc3ccccc3)cc12` [Roxa, roxadustat] the serum cholesterol level [1] was “significantly reduced”, the “accumulation of neutral lipid droplets in IHMGECs (area of ORO staining)” value (IHMGECs; Roxa alone, 21% O2, 4 days) was “significantly increased; also recorded: duplicated the effect of a hypoxic environment” and the “accumulation of neutral lipid droplets in IHMGECs (area of ORO staining), combination of Roxa and 1% O2” value (IHMGECs; Roxa in 1% O2, 4 days) was “significantly increased; also recorded: further increased”.
